Measured values: patent US20240358693A1, “METHODS OF TREATING PAIN” (Aisa Pharma, Inc., priority 2023, published 2024)

Tested on: participants with SSc-RP
Test: Average severity of weekly RP attacks (VAS 0-10 cm scale)
Format: in vivo, human
Description: The absolute change in average severity of weekly RP attacks (VAS 0-10 cm scale) from baseline to the end of each Dosing Period was and will be a secondary outcome variable. The sponsor-developed participant-informed diary will be used to record data. Average severity of weekly RP attacks is defined as the total severity scores of RP attacks divided by total number of RP attacks within the last 7 days of each dosing period. Total severity scores of RP attacks during the last 7 days of screening period divided by the total number of RP attacks will be used as baseline for the analysis of all periods. The variable will be calculated similar to frequency data as before.

[1] = Excluding Outliers, Tadalafil 5 mg, second Baseline RCS subgroup block (not named), ITT Part A
[2] = Excluding Outliers, Tadalafil 5 mg, second Baseline RCS subgroup block (not named), ITT Part A, score 0-10
[3] = Tadalafil 5 mg, n=1, Excluding Outliers, ITT Population - Part A
[4] = Tadalafil 5 mg, n=2, ITT Population - Part A
[5] = Tadalafil 5 mg, n=2, by Baseline RCS, second subgroup, ITT Population - Part A
[6] = Tadalafil 5 mg, Excluding Outliers, ITT Population - Part A
[7] = Tadalafil 5 mg, Excluding Outliers, by Baseline RCS, second subgroup, ITT Population - Part A
[8] = Tadalafil 5 mg, ITT Population - Part A
[9] = Tadalafil 5 mg, second Baseline RCS subgroup block (not named), ITT Part A
[10] = Tadalafil 5 mg, second Baseline RCS subgroup block (not named), ITT Part A, score 0-10

CN1CC(=O)N2[C@H](c3ccc4c(c3)OCO4)c3[nH]c4ccccc4c3C[C@@H]2C1=O [Tadalafil, tadalafil]
−1.19: Average Severity of Weekly RP Attacks (All Attacks), Change from Baseline, Mean [2] | Average Severity of Weekly RP Attacks (All Attacks), Change from Baseline, Median [2] | Average Severity of Weekly RP Attacks (All Attacks), Change from Baseline, Mean [6] | Average Severity of Weekly RP Attacks (All Attacks), Change from Baseline, Median [6]
6.3%: reduction in severity (more severe disease at baseline (RCS>5.0), n=2 per treatment)
4.67: Average Severity (0-10) of Weekly Symptomatic RP Attacks, Mean [3] | Average Severity (0-10) of Weekly Symptomatic RP Attacks, Median [3] | Average Severity of Weekly Symptomatic RP Attacks (Mean) [7] | Average Severity of Weekly Symptomatic RP Attacks (Median) [7]
−22.01%: Average Severity of Weekly Symptomatic RP Attacks, Percent Change from Baseline, Mean [3] | Average Severity of Weekly Symptomatic RP Attacks, Percent Change from Baseline, Median [3] | Average Severity of Weekly Symptomatic RP Attacks, Percent Change from Baseline, Mean [7] | Average Severity of Weekly Symptomatic RP Attacks, Percent Change from Baseline, Median [7]
4.56: Average Severity of Weekly RP Attacks (All Attacks), Mean [2] | Average Severity of Weekly RP Attacks (All Attacks), Median [2] | Average Severity of Weekly RP Attacks (All Attacks), Mean [6] | Average Severity of Weekly RP Attacks (All Attacks), Median [6]
−0.47: Average Severity of Weekly RP Attacks (All Attacks), Change from Baseline, Mean [8] | Average Severity of Weekly RP Attacks (All Attacks), Change from Baseline, Median [8] | Average Severity of Weekly RP Attacks (All Attacks), Change from Baseline, Mean [10] | Average Severity of Weekly RP Attacks (All Attacks), Change from Baseline, Median [10]
−8.97%: Average Severity of Weekly RP Attacks (All Attacks), Percent Change from Baseline, Mean [8] | Average Severity of Weekly RP Attacks (All Attacks), Percent Change from Baseline, Median [8] | Average Severity of Weekly RP Attacks (All Attacks), Percent Change from Baseline, Mean [9] | Average Severity of Weekly RP Attacks (All Attacks), Percent Change from Baseline, Median [9]
7.08: Average Severity (0-10) of Weekly Symptomatic RP Attacks, Mean [4] | Average Severity (0-10) of Weekly Symptomatic RP Attacks, Median [4] | Average Severity (0-10) of Weekly Symptomatic RP Attacks, Mean [5] | Average Severity (0-10) of Weekly Symptomatic RP Attacks, Median [5]
−20.69%: Average Severity of Weekly RP Attacks (All Attacks), Percent Change from Baseline, Mean [1] | Average Severity of Weekly RP Attacks (All Attacks), Percent Change from Baseline, Median [1] | Average Severity of Weekly RP Attacks (All Attacks), Percent Change from Baseline, Mean [6] | Average Severity of Weekly RP Attacks (All Attacks), Percent Change from Baseline, Median [6]
−1.32: Average Severity of Weekly Symptomatic RP Attacks, Change from Baseline, Mean [3] | Average Severity of Weekly Symptomatic RP Attacks, Change from Baseline, Median [3] | Average Severity of Weekly Symptomatic RP Attacks, Change from Baseline, Mean [7] | Average Severity of Weekly Symptomatic RP Attacks, Change from Baseline, Median [7]
−10.43%: Average Severity of Weekly Symptomatic RP Attacks, Percent Change from Baseline, Mean [4] | Average Severity of Weekly Symptomatic RP Attacks, Percent Change from Baseline, Median [4] | Average Severity of Weekly Symptomatic RP Attacks, Percent Change from Baseline, Mean [5] | Average Severity of Weekly Symptomatic RP Attacks, Percent Change from Baseline, Median [5]
7.02: Average Severity of Weekly RP Attacks (All Attacks), Mean [8] | Average Severity of Weekly RP Attacks (All Attacks), Median [8] | Average Severity of Weekly RP Attacks (All Attacks), Mean [10] | Average Severity of Weekly RP Attacks (All Attacks), Median [10]
−0.60: Average Severity of Weekly Symptomatic RP Attacks, Change from Baseline, Mean [4] | Average Severity of Weekly Symptomatic RP Attacks, Change from Baseline, Median [4] | Average Severity of Weekly Symptomatic RP Attacks, Change from Baseline, Mean [5] | Average Severity of Weekly Symptomatic RP Attacks, Change from Baseline, Median [5]
